# Patent US8895727B2, “Method for preparation of fluorine-18-labeled flumazenil using diaryliodonium salt precursor” (priority 2011, dated 2014)
# Assay: Stability of diaryliodonium salt precursors under heating and base conditions (HPLC of by-products I-mazenil and H-mazenil)
# Type: physicochemical
# Details: for relative instability of precursor (stability of 8f set forth to be 1.00): 150° C., 15 min, K2.2.2./K2CO3 in dimethylformamide, without fluorine-18, ratio relative to 8f (FIG. 6)
# Procedure: Contrary to the expectation that the diaryliodonium salt precursors (8b to 8e) could be labeled at higher yields than precursor 8a thanks to their higher electron densities, a lower labeling yield of fluorine18 was detected for them at high temperatures in the presence of a base. This might be accounted by the significance of the stability of the precursors. To verify this, the precursors were analyzed for stability in the […] to examine the reactivity of each precursor. In the following Reaction Scheme 2, the degradation of each diaryliodonium salt precursor in the presence of base under a heating condition is illustrated. As shown, two compounds I-mazenil (9) and H-mazenil (10) are formed, and their concentrations reflect the stability of the diaryliodonium salt precursor.
# The diaryliodonium salt precursors whose aromatic rings are richer in electron density, compared to phenyl-mazenil-iodonium salt (8a), are more apt to be affected by the reaction conditions for aromatic fluorination with fluorine-18. […] To examine the selectivity and stability of the diaryliodonium salts, the production of the by-products I-mazenil (9) and H-mazenil(10) which are degraded from the precursors due to their instability in a condition free of fluorine-18 was analyzed using HPLC. […]
# After each diaryliodonium salt precursor was thermally treated 150° C. for 15 min in the presence of kryptofix2.2.2./potassium carbonate (K2.2.2./K2CO3) in dimethylformamide, without fluorine-18, measurement was made of the concentrations of 1-mazenil (9) and H-mazenil (10) to evaluate the stability of each precursor (FIG. 6). In addition, the labeling reactivity of the diaryliodonium salt precursors into [19F]flumazenil was assessed by reacting them with cesium fluoride at 90° C. for 120 min in dimethylformamide (FIG. 7). […]
SMILES,relative instability of precursor (stability of 8f set forth to be 1.00),"stability among the diaryliodonium salt precursors (potassium carbonate and 150° C., similar results with TBAHCO3 and TBAOH (FIG. 6))"
"CCOC(=O)c1ncn2c1CN(C)C(=O)c1cc([I+]c3ccccc3)ccc1-2.Cc1ccc(S(=O)(=O)[O-])cc1 [Precursor 8a, ethyl 8-phenyl(iodonium tosylate)-5,6-dihydro-5-methyl-6-oxo-4H-imidazo[1,5-a][1,4]benzodiazepine-3-carboxylate]",1.11,–
"CCOC(=O)c1ncn2c1CN(C)C(=O)c1cc([I+]c3ccc(C)cc3)ccc1-2.Cc1ccc(S(=O)(=O)[O-])cc1 [Precursor 8f, ethyl 8-(4-methylphenyl)(iodonium tosylate)-5,6-dihydro-5-methyl-6-oxo-4H-imidazo[1,5-a][1,4]benzodiazepine-3-carboxylate]",1.00,the most stable
